IC50 data for three molecules are collected here from US20090028832A1, “Compositions and methods for targeted tumor therapy” (priority 2006, published 2009).

In general, IC50 refers to the point on the concentration scale where inhibition reaches its midpoint. A low value points to greater potency.

What all share (type): cell-based
Assay [1] concerns ARCaPE cells. Description: Chemotherapeutic sensitivity, cell growth by MTT assay, ARCaPE cells. Conditions: Homo sapiens, in vitro growth, 96 hrs incubation. The protocol: (§1) Cells (5×10^3 per well) were cultured in 96-well plates for 24 hr and then replaced with fresh cultured medium to which were added Paclitaxel, Etoposide, or Doxorubicin (Sigma, St. Louis, Mo.) at 4 different concentrations, followed by incubation for 96 hrs. Cell growth was measured using the MTT assay.
(In general: Tetrazolium assays rely on reduction of a dye to a coloured formazan, in cell work by metabolically active cells.)

In assay [2] the test system is ARCaPM cells. Kind of assay: Chemotherapeutic sensitivity, cell growth by MTT assay, ARCaPM cells. Conditions: Homo sapiens, in vitro growth, 96 hrs incubation. The protocol:
as §1

The test system of assay [3] is C4-2 cells. Kind of assay: Chemotherapeutic sensitivity, cell growth by MTT assay, C4-2 cells. Conditions: Homo sapiens, invasive LNCaP lineage C4-2 cells, in vitro growth. On the procedure: as §1

Regarding `COc1cccc2c1C(=O)c1c(O)c3c(c(O)c1C2=O)C[C@@](O)(C(=O)CO)C[C@@H]3O[C@H]1C[C@H](N)[C@H](O)[C@H](C)O1` [doxorubicin], the values for the half-inhibitory concentration (IC50) in assay [1], in assay [2] and in assay [3] were 3.4 µM, 5.5 µM and 2700 nM, respectively.

As to `CC(=O)O[C@H]1C(=O)[C@@]2(C)[C@H]([C@H](OC(=O)c3ccccc3)[C@]3(O)C[C@H](OC(=O)[C@H](O)[C@@H](NC(=O)c4ccccc4)c4ccccc4)C(C)=C1C3(C)C)[C@]1(OC(C)=O)CO[C@@H]1C[C@@H]2O` [paclitaxel], the IC50 in assay [1] worked out at 0.053 µM; in assay [2], 0.039 µM; in assay [3], 23.5 nM.

On to `COc1cc([C@@H]2c3cc4c(cc3[C@@H](O[C@@H]3O[C@@H]5CO[C@@H](C)O[C@H]5[C@H](O)[C@H]3O)[C@H]3COC(=O)[C@H]23)OCO4)cc(OC)c1O` [etoposide], for which the IC50 came out at 8.1 µM in assay [1], 5.8 µM in assay [2] and 5600 nM in assay [3].
